Results reported in the supplement of paper PMC11061612.

Assays:
Assay in all cases: combination Emax (second highest fraction inhibited in the dose matrix, 72 h); higher = more inhibition; extreme values may be limits of the assay
[1] = tested on: NCI-H3118 (Head and Neck Carcinoma)
Summary of the method: (§1)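 Cell lines in DMEM/F12 or RPMI with 10% FBS were plated in 1536-well plates, held 24 hours at 37°C, 5% CO2, then given two-drug dose matrices for 72 hours (DMSO typically 0.2%). Viability was read by CellTiter-Glo 2.0 luminescence and scaled as inhibition from 0 (vehicle wells) to 1 (blank wells). Combination Emax is the second-highest inhibition in the matrix; Bliss excess is observed combination effect minus expected EA + EB − EA·EB, EA and EB being single-agent effects.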

GAK (Melanoma) = tested on: GAK (Melanoma)
Summary of the method: as §1

[2] = tested on: MM1S (Plasma Cell Myeloma)
Summary of the method: as §1

T47D (Breast Carcinoma) = tested on: T47D (Breast Carcinoma)
Summary of the method: as §1

NCI-H2373 (Mesothelioma) = tested on: NCI-H2373 (Mesothelioma)
Summary of the method: as §1

[3] = tested on: NCI-H596 (Other Solid Carcinomas)
Summary of the method: as §1

[4] = tested on: SNU-423 (Hepatocellular Carcinoma)
Summary of the method: as §1

NB1 (Neuroblastoma) = tested on: NB1 (Neuroblastoma)
Summary of the method: as §1

[5] = tested on: NAMALWA (Burkitt's Lymphoma)
Summary of the method: as §1

[6] = tested on: SCC-4 (Oral Cavity Carcinoma)
Summary of the method: as §1

AM-38 (Glioblastoma) = tested on: AM-38 (Glioblastoma)
Summary of the method: as §1

[7] = tested on: Raji (Burkitt's Lymphoma)
Summary of the method: as §1

[8] = tested on: PL4 (Pancreatic Carcinoma)
Summary of the method: as §1

[9] = tested on: LCLC-103H (Non-Small Cell Lung Carcinoma)
Summary of the method: as §1

[10] = tested on: KP-4 (Pancreatic Carcinoma)
Summary of the method: as §1

[11] = tested on: MS-1 (Small Cell Lung Carcinoma)
Summary of the method: as §1

[12] = tested on: RCC-JW (Kidney Carcinoma)
Summary of the method: as §1

[13] = tested on: SK-CO-1 (Colorectal Carcinoma)
Summary of the method: as §1

[14] = tested on: SiHa (Cervical Carcinoma)
Summary of the method: as §1

[15] = tested on: T84 (Colorectal Carcinoma)
Summary of the method: as §1

C=CCn1c(=O)c2cnc(Nc3ccc(N4CCN(C)CC4)cc3)nc2n1-c1cccc(C(C)(C)O)n1 [AZD1775] + O=C(c1cc(Cc2n[nH]c(=O)c3ccccc23)ccc1F)N1CCN(C(=O)C2CC2)CC1 [Olaparib] (first compound max 1 µM, partner max 10 µM)
combination Emax [1]: 0.889 | combination Emax (GAK (Melanoma)): 0.804 | combination Emax [2]: 0.779 | combination Emax (T47D (Breast Carcinoma)): 0.362 | combination Emax (NCI-H2373 (Mesothelioma)): 0.354 | combination Emax [3]: 0.431 | combination Emax [4]: 0.731 | combination Emax (NB1 (Neuroblastoma)): 0.819 | combination Emax [5]: 0.96 | combination Emax [6]: 0.496 | combination Emax (AM-38 (Glioblastoma)): 0.496 | combination Emax [7]: 0.74 | combination Emax [8]: 0.494 | combination Emax [9]: 0.546 | combination Emax [10]: 0.721 | combination Emax [11]: 0.924 | combination Emax [12]: 0.326 | combination Emax [13]: 0.662 | combination Emax [14]: 0.199 | combination Emax [15]: 0.745

CN(CCO)CC[C@H](CSc1ccccc1)Nc1ccc(S(=O)(=O)NC(=O)c2ccc(N3CCC([C@@H](O)c4ccccc4-c4ccc(Cl)cc4)CC3)cc2)cc1S(=O)(=O)C(F)(F)F [AZD4320] + C1CN(CCC1(C(=O)N[C@@H](CCO)C2=CC=C(C=C2)Cl)N)C3=NC=NC4=C3C=CN4 [Capivasertib] (first compound max 1 µM, 7x7, partner max 3 µM)
combination Emax [1]: 0.0845 | combination Emax (GAK (Melanoma)): 0.135 | combination Emax [2]: 1 | combination Emax (T47D (Breast Carcinoma)): 0.364 | combination Emax (NCI-H2373 (Mesothelioma)): 0.409 | combination Emax [3]: 0.42 | combination Emax [4]: 0.406 | combination Emax (NB1 (Neuroblastoma)): 0.689 | combination Emax [6]: 0.598 | combination Emax (AM-38 (Glioblastoma)): 0.561 | combination Emax [7]: 0.177 | combination Emax [8]: 0.497 | combination Emax [9]: 0.238 | combination Emax [10]: 0.101 | combination Emax [11]: 0.52 | combination Emax [12]: 0.615 | combination Emax [13]: 0.659 | combination Emax [14]: 0.171 | combination Emax [15]: 0.136

COc1nnc2ccc(N3CCC(c4ccc(OCCN5CCN(C)C(=O)[C@H]5C)cc4)CC3)nn12 [AZD5153] + CN(CC[C@H](CSC1=CC=CC=C1)NC2=C(C=C(C=C2)S(=O)(=O)NC(=O)C3=CC=C(C=C3)N4CCC(CC4)[C@H](C5=CC=CC=C5C6=CC=C(C=C6)Cl)O)S(=O)(=O)C(F)(F)F)CCO [AZD4320] (first compound max 1 µM, 7x7, partner max 1 µM)
combination Emax [2]: 1 | combination Emax (T47D (Breast Carcinoma)): 0.472 | combination Emax (NCI-H2373 (Mesothelioma)): 0.511 | combination Emax [3]: 0.823 | combination Emax (NB1 (Neuroblastoma)): 0.248 | combination Emax (AM-38 (Glioblastoma)): 0.949 | combination Emax [7]: 0.579 | combination Emax [8]: 0.809 | combination Emax [14]: 0.527
